{"source": "paper PMC5487681", "about": "“Identification of Antifungal H^+-ATPase Inhibitors with Effect on Plasma Membrane Potential” (Antimicrobial Agents and Chemotherapy, 2017)", "key": {"[1]": {"tested_on": "Candida parapsilosis ATCC 22019", "experiment": "microbe, parasite or virus in culture", "settings": "Table 3", "protocol": "(§1) The following fungal isolates were used: Saccharomyces cerevisiae ATCC 9763, Candida albicans SC5314, Candida parapsilosis ATCC 22019, Candida tropicalis Ct016, Candida glabrata ATCC 90030, Aspergillus fumigatus ATCC 13073, and Aspergillus flavus ATCC MYA-1005. Frozen stocks of yeast isolates in glycerol (final concentration, 20%) were prepared by growing the cells to log phase in YPD medium at 30°C and 150 rpm. Frozen stocks of mold spores were prepared by harvesting spores from 7-day-old potato glucose agar plates in phosphate-buffered saline, 0.1% Tween 80 and aliquoting these spores in the presence of glycerol (final concentration, 20%). The cells were stored at −80°C. The cells or spores were thawed and diluted to a final concentration of 0.5 × 10^5 to 2.5 × 10^5 CFU/ml in sterile Milli-Q H2O. […] The plate was incubated for 20 to 24 h at 34°C (72 h for molds), and the OD490 was measured on a Victor X5 (PerkinElmer) plate reader. Mold growth assay plates were also visually inspected. The MIC was defined as the lowest concentration inhibiting the visual growth of the microorganism."}, "[2]": {"tested_on": "Candida glabrata ATCC 90030", "experiment": "microbe, parasite or virus in culture", "settings": "Table 3", "protocol": "as §1"}, "Candida tropicalis Ct016": {"tested_on": "Candida tropicalis Ct016", "experiment": "microbe, parasite or virus in culture", "settings": "Table 3", "protocol": "as §1"}, "S. cerevisiae Pma1": {"target": "S. cerevisiae Pma1 (Saccharomyces cerevisiae, UniProt P05030)", "sequence (P05030 whole entry, canonical isoform)": "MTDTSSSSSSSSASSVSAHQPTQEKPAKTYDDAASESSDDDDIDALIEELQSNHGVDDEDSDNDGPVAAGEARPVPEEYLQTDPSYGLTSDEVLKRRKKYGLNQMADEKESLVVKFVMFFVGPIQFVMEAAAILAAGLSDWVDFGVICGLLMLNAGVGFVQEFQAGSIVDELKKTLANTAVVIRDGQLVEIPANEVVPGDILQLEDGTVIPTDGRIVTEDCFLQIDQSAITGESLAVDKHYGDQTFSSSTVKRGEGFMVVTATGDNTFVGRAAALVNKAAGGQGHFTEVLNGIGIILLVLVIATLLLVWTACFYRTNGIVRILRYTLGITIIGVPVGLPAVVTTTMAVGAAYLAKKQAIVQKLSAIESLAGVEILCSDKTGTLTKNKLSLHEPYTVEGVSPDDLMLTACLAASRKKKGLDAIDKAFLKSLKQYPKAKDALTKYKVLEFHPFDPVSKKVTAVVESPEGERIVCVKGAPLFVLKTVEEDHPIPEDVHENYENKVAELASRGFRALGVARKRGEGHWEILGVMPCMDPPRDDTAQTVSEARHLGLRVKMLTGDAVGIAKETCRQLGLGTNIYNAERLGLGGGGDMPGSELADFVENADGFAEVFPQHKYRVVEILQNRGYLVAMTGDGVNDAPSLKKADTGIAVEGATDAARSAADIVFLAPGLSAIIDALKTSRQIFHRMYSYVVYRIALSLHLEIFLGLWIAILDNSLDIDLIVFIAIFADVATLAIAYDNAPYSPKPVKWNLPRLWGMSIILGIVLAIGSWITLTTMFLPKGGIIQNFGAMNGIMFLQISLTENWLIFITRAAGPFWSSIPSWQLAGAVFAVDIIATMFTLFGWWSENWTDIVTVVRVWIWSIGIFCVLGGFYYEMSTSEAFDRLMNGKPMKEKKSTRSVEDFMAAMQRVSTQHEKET", "experiment": "ATP hydrolysis assay, S. cerevisiae plasma membranes containing Pma1", "type": "biochemical", "set-up": "containing the full-length cDNA of the S. cerevisiae plasma membrane H^+-ATPase isoform PMA1; made in house; host or cells: S. cerevisiae RS72 (PMA1 cDNA under PMA1 promoter); also wild-type S. cerevisiae ATCC 9763", "settings": "Table 2; pH 7, n = 2; read-out: IC50 for ATP hydrolysis, S. cerevisiae Pma1", "protocol": "Plasma membranes containing Pma1 were isolated from S. cerevisiae RS72 cells containing the full-length cDNA of the S. cerevisiae plasma membrane H^+-ATPase isoform PMA1 under the control of the PMA1 promoter, as described in reference.\nA 100-ml overnight culture in YPD medium [10 g/liter yeast extract (BD, Sparks, MD), 20 g/liter Bacto peptone (BD), 20 g/liter D-(+)-glucose] was transferred to 1 liter YPD medium and grown at room temperature and 150 rpm for 18 h for wild-type S. cerevisiae (ATCC 9763) and 7 h for C. albicans. The cells were harvested and washed in Milli-Q H2O by centrifugation at 3,360 × g. The cells were glucose activated by the addition of 10% D-(+)-glucose for 10 min while shaking. The cells were then centrifuged at 3,360 × g for 3 min and frozen. Cells (60 to 80 g, wet weight) were then disrupted by bead beating (BioSpec, Bartlesville, OK) and processed as described in reference to prepare the plasma membranes. […] All batches were validated by ATPase hydrolysis activity, pH optimum, and orthovanadate sensitivity.\nThe protein activity levels were determined by measuring the amount of free phosphate produced from the ATP hydrolysis reaction. The assay was performed as described in reference. Each well contained ATPase enzyme, 2 μl of inhibitor (usually in the range of 333 to 0.01 μM) dissolved in dimethyl sulfoxide (DMSO) (Duchefa Biochemie, Haarlem, The Netherlands), and an assay buffer dependent on the enzyme for a final volume of 60 μl. Possible compound precipitation in the assay buffer was monitored using a Nephelostar plate reader measuring turbidity, and the information was taken into account in the IC50 determination. Pma1 assay buffer consisted of 20 mM 3-(N-morpholino)propanesulfonic acid (MOPS)–NaOH, pH 6.5 or 7.0, 8 mM MgSO4, 50 mM KNO3 (a vacuolar ATPase inhibitor), 25 mM sodium azide (a mitochondrial ATPase inhibitor), and 250 μM sodium molybdate (an acid phosphatase inhibitor). SERCA buffer consisted of 9 mM MOPS-NaOH, pH 7, 2.7 mM MgCl2, 90 μM CaCl2, and 72 mM KCl. Na^+,K^+-ATPase buffer consisted of 30 mM MOPS-NaOH, pH 7, 40 mM NaCl, 4 mM MgCl2, and 20 mM KCl. The concentration of protein was adjusted to obtain a signal of the optical density at 860 nm (OD860) of between 0.5 and 1.0 in the untreated samples (for all Pma1 batches, ∼1 to 2 μg/well; for SERCA and Na^+,K^+-ATPase, ∼0.1 to 0.2 μg/well). […]"}, "Na^+,K^+-ATPase": {"target": "T1, Na^+,K^+-ATPase (Sus scrofa, UniProt P05024)", "T1 construct": "from tissue; host or cells: porcine kidney (gift of Natalya Fedosova, Aarhus University)", "experiment": "ATP hydrolysis assay, Na+,K+-ATPase", "type": "biochemical, porcine", "settings": "Table 2; pH 7, n = 2; porcine kidney; read-out: IC50 for ATP hydrolysis, Na^+,K^+-ATPase", "protocol": "Rabbit sarcoplasmic reticulum membranes containing sarcoplasmic endoplasmic reticulum Ca^2+-ATPase (SERCA) were kindly provided by Claus E. Olesen and Jesper V. Møller, Aarhus University, and prepared as described in reference. Porcine kidney Na^+,K^+-ATPase was kindly provided by Natalya Fedosova, Aarhus University, and prepared as described in reference.\nThe protein activity levels were determined by measuring the amount of free phosphate produced from the ATP hydrolysis reaction. The assay was performed as described in reference. Each well contained ATPase enzyme, 2 μl of inhibitor (usually in the range of 333 to 0.01 μM) dissolved in dimethyl sulfoxide (DMSO) (Duchefa Biochemie, Haarlem, The Netherlands), and an assay buffer dependent on the enzyme for a final volume of 60 μl. Possible compound precipitation in the assay buffer was monitored using a Nephelostar plate reader measuring turbidity, and the information was taken into account in the IC50 determination. Pma1 assay buffer consisted of 20 mM 3-(N-morpholino)propanesulfonic acid (MOPS)–NaOH, pH 6.5 or 7.0, 8 mM MgSO4, 50 mM KNO3 (a vacuolar ATPase inhibitor), 25 mM sodium azide (a mitochondrial ATPase inhibitor), and 250 μM sodium molybdate (an acid phosphatase inhibitor). SERCA buffer consisted of 9 mM MOPS-NaOH, pH 7, 2.7 mM MgCl2, 90 μM CaCl2, and 72 mM KCl. Na^+,K^+-ATPase buffer consisted of 30 mM MOPS-NaOH, pH 7, 40 mM NaCl, 4 mM MgCl2, and 20 mM KCl. The concentration of protein was adjusted to obtain a signal of the optical density at 860 nm (OD860) of between 0.5 and 1.0 in the untreated samples (for all Pma1 batches, ∼1 to 2 μg/well; for SERCA and Na^+,K^+-ATPase, ∼0.1 to 0.2 μg/well)."}}}
{"smiles": "[O]=[V]([O-])([O-])[O-]", "note": "[Vanadate, reference compound]", "values": [{"measurement": "MIC for growth inhibition, C. parapsilosis", "setting": "[1]", "result": ">750", "unit": "µM"}, {"measurement": "MIC for growth inhibition, C. glabrata", "setting": "[2]", "result": ">750", "unit": "µM"}, {"measurement": "MIC for growth inhibition, C. tropicalis", "setting": "Candida tropicalis Ct016", "result": ">750", "unit": "µM"}, {"measurement": "IC50", "setting": "S. cerevisiae Pma1", "result": "250 ± 10", "unit": "nM"}, {"measurement": "IC50", "setting": "Na^+,K^+-ATPase", "result": "6 ± 1", "unit": "nM"}]}
